How the values were obtained:
human thrombin = target: T1, human thrombin (Homo sapiens, UniProt P00734); assay: Measurement of inhibitory activity for thrombin (S-2238 chromogenic substrate); format: biochemical; conditions: S-2238 substrate, pH 8.4, 10 minutes at 37° C., absorbance 405 nm
T1 construct: human thrombin (Sigma Chemical Company); purchased Sigma Chemical Company
Experimental: Measurement of inhibitory activity for thrombin
(§1) 2.5 μL of a dimethylsulfoxide solution of a test compound, 187.5 μL of 100 mM tris-200 mM NaCl buffer (pH 8.4) and 50 μL of 1 mM S-2238 (Daiichi Pure Chemicals) aqueous solution were poured into 96 well microplate. Then 10 μL of 2.0 U/mL human thrombin (Sigma Chemical Company) in gelatin-glycine buffer was added and the mixture was incubated for 10 minutes at 37° C. The reaction was terminated with the addition of 50 μL of 60% acetic acid and absorbance (405 nm) was measured by a microplate reader (SPECTRAmax250, Molecular Devices).
(§2) The group with 2.5 μL of the dimethylsulfoxide solution instead of the test compound solution was defined as the control, and the group with 10 μL of the gelatin-glycine buffer solution instead of human thrombin was defined as the blank. The concentration of a test compound that inhibited the absorbance of control by 50% (IC50) was obtained, and this value was used as the index of inhibitory activity for thrombin.

[1] = target: T2, human activated blood coagulation factor X (Homo sapiens, UniProt P00742); assay: Measurement of inhibitory activity for activated blood coagulation factor X (S-2222 chromogenic substrate); format: biochemical; conditions: S-2222 substrate, pH 8.4, 10 minutes at 37° C., absorbance 405 nm
T2 construct: purchased Calbiochem
Experimental: Measurement of inhibitory activity for activated blood coagulation factor X
as §1, with “S-2222” for “S-2238”, “0.6” for “2.0”, “activated blood coagulation factor X (Calbiochem)” for “thrombin (Sigma Chemical Company)”
as §2, with “activated blood coagulation factor X” for “thrombin”, “activated blood coagulation factor X. Results were shown as Table 1.” for “thrombin.”

T2 sequence (P00742 235-488 limits assumed): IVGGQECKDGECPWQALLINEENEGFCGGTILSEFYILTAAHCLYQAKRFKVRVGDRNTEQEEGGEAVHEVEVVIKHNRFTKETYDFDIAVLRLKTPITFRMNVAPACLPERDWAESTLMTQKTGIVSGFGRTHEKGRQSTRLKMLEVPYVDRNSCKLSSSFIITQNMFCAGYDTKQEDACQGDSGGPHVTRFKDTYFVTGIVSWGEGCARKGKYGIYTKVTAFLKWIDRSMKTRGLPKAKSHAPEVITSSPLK
T2 sequence (P00742 41-179 partner limits assumed): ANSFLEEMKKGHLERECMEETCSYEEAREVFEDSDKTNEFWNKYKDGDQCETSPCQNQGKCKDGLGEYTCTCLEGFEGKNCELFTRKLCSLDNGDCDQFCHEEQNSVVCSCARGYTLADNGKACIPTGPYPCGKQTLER

CC(C)c1ccc(CCN(CC(=O)N2CCOCC2)S(=O)(=O)c2cc(C(=N)N)ccc2O)cc1 [Compound 14, 5-Carbamimidoyl-2-hydroxy-N-[2-(4-isopropylphenyl)ethyl]-N-(2-morpholin-4-yl-2-oxoethyl)benzenesulfonamide]
IC50 (human thrombin): 27 µM
IC50 [1]: 51 nM

N=C(N)c1ccc(O)c(S(=O)(=O)NCCc2ccc(-c3ccccc3S(N)(=O)=O)cc2)c1 [Compound 15, 5-Carbamimidoyl-2-hydroxy-N-[2-(2′-sulfamoylbiphenyl-4-yl)-ethyl]benzenesulfnamide]
IC50 [1]: 3.8 nM

CC(C)c1ccc(CCN(C)S(=O)(=O)c2cc(C(=N)N)ccc2O)cc1 [Compound 17, 5-Carbamimidoyl-2-hydroxy-N-[2-(4-isopropylphenyl)ethyl]-N-methylbenzenesulfonamide]
IC50 (human thrombin): 26 µM
IC50 [1]: 160 nM

Reference: US20050014787A1, “5-amidino-2-hydroxybenzenesulfonamide derivatives medicinal compoistions containing the same medicinal use thereof and intermediates in the production thereof” (priority 2001, published 2005)
